Measured values taken from US9464129B2, “Neuronal exocytosis inhibiting peptides” (BCN PEPTIDES S.A., priority 2006, dated 2016).

System: primary cultures of rat hippocampus neurons
Experiment: release of [3H]-L-glutamate from primary cultures of rat hippocampus neurons (neuronal exocytosis)
Format: cell-based
Method: Assay of the Activity of the Irreversibly Chemically Modified Peptides Derived from the SNAP-25 Protein on the Neuronal Exocytosis of [^3H]-L-Glutamate
The exocytosis of this neurotransmitter in neuronal cultures can be obtained by means of electric depolarization of the cells. The primary cultures of rat embryonic hippocampus are prepared using conventional methods [Blanes-Mira C., Merino J. M., Valera E., Fernández-Ballester G., Gutiérrez L. M., Viniegra S., Pérez-Payá E. and Ferrer-Montiel A. “Small peptides patterned after the N-terminus domain of SNAP25 inhibit SNARE complex assembly and regulated exocytosis” J. Neurochem. 88, 124-135] and are maintained in culture for 14 days in an incubator at 37° C. and 5% CO2. The cultures are incubated with [^3H]-L-glutamine in order to load them with [^3H]-L-glutamate for 3 h at 37° C. The excess [^3H]-L-glutamine is subsequent washed off and they are incubated with 0.1 mM of the peptides to be studied for 1 h at 37° C. The [^3H]-L-glutamate is released by means of depolarization with 75 mM KCl and 2 mM CaCl2 buffered in physiological buffer for 10 min at 37° C. The culture medium is collected and the amount of [^3H]-L-glutamate is quantified in a beta radiation meter. The results are normalized with regard to the release of [^3H]-L-glutamate in the absence of the peptide and corrected from the basal release in the absence of calcium.

SEQ ID No.11: unmodified peptide derived from the amino acid sequence of the SNAP-25 protein, residues 12 to 17 (EEMQRR) (listed as Homo sapiens)
concentration required to reach inhibition levels comparable to those of the irreversibly modified peptides (compared with modified peptides at 0.1 mM, in the range of 30 times greater): ~3 mM | inhibition of the release of [3H]-L-glutamate (peptide 0.1 mM, 1 h at 37° C., depolarization with 75 mM KCl and 2 mM CaCl2, FIG. 1): 5%
